The values below come from patent US10208034B2, “Quinoline derivative” (ONO PHARMACEUTICAL CO., LTD., priority 2014, dated 2019).

Assay [1] has as its target KDR kinase (Homo sapiens, UniProt P35968). Kind of assay: Evaluation of kinase selectivity (KDR kinase IC50 versus Axl IC50, in vitro test). It is filed as biochemical. The note with it: Axl selective inhibitory activity with respect to KDR kinase, ratio of IC50 values. The protocol:
Similar to Biological Example 1, values of 50% inhibition rate (IC50 value) with respect to the KDR kinase of the test compound was measured. The Axl selective inhibitory activity of the test compound with respect to KDR kinase was calculated based on the above-mentioned ratio of the IC50 values. As the test compounds, for the compounds of the present invention, the compounds of Examples 21, 42, 66, and 28 were used, and for the comparative compounds, the compound of Example 74 (Comparative compound B) and the compound of Example 92 (Comparative compound C) described in Patent Literature 5, having the following structure, were used.

Assay [2] deals with T1, Ba/F3 Axl (Homo sapiens, UniProt P30530).
T1 sequence (P30530 1-894): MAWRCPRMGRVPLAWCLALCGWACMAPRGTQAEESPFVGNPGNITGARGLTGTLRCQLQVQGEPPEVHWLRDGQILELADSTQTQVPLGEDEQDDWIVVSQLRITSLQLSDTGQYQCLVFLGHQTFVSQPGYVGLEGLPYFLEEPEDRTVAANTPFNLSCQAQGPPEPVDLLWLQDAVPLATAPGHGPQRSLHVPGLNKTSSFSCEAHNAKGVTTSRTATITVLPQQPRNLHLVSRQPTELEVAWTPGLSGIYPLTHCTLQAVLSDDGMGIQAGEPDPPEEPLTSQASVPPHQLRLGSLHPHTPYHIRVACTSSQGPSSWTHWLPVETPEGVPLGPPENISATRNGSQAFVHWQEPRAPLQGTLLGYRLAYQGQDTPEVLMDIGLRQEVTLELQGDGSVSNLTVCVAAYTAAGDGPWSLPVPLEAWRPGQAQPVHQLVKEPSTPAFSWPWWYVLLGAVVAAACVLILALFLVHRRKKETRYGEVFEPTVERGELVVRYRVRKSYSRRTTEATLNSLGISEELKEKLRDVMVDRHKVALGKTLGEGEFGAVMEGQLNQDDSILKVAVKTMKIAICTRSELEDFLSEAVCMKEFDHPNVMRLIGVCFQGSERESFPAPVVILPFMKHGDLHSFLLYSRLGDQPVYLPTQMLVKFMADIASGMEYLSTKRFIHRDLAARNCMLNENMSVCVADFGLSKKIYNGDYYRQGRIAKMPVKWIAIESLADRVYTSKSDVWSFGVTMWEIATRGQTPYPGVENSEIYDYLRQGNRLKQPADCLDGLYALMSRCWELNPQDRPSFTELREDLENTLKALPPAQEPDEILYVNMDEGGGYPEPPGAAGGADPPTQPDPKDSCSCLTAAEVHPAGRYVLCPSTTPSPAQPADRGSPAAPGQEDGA
As to the kind of experiment: Proliferation suppression rate using mouse pro-B cell line (Ba/F3 Axl) stably expressing Axl (CellTiter-Glo). It is filed as cell-based. The conditions noted are these: Ba/F3 Axl cells, 48 hours, read-out: IC50 value of proliferation suppression, Ba/F3 Axl. The protocol: A 0.1 mmol/L DMSO solution of the test compound was dispensed into a 96-well plate, and a 3-fold dilution series was prepared using DMSO. DMSO solutions of test compounds, having various concentrations, were further 500-fold diluted with a RPMI1640 medium (containing 10% HI-FBS, 1% penicillin) and a diluted solution of the test compound having […] with respect to the final concentration was prepared. In each well of the 96-well plate (BD Biosciences) for measurement, 50 μL of a RPMI medium was added to the Blank group, 50 μL of a RPMI medium containing 0.2% DMSO was added to the medium group, and 50 μL of the diluted solution of the test compound was added to the test compound group, respectively. Ba/F3 Axl was diluted with a medium to have a density of 2×10^5 cells/mL to prepare a cell suspension. In each well of the 96-well plate for measurement, 50 μL each of the RPMI medium was added to the Blank group, and 50 μL each of the cell suspension to the medium group and the test compound group, respectively, and the groups were stood still at 37° C. at 5% CO2 for 48 hours. After standing still, Relative Light Unit (RLU) was measured by using CELLTITER-GLO (registered trademark) LUMINESCENT CELL VIABILITY ASSAY (Promega). The measurement was carried out according to the attached instruction. To each well, 100 μL each of light-emitting solution was added. The plate was stirred at room temperature for 3 min and then stool still at room temperature with light shielded for 10 min, and RLU was measured by using Microplate Reader (SpectraMax M5e, Molecular Devices). The average values of RLU of the Blank group and the medium group were respectively calculated, and the proliferation suppression rate of the test compound group was calculated. Proliferation suppression rate (%)={1−(RLU of test compound group−A)/(B−A)}×100 [Math. 2] A: average value of RLU of Blank group B: average value of RLU of medium group
A value of 50% inhibition rate (IC50 value) of the test compound was calculated from the inhibition curve based on the inhibition rate in each concentration of the test compound.
A general note: Cellular ATP, detected with luciferase, serves as a proxy for viable cell number.

KDR kinase, sequence (P35968 20-1356): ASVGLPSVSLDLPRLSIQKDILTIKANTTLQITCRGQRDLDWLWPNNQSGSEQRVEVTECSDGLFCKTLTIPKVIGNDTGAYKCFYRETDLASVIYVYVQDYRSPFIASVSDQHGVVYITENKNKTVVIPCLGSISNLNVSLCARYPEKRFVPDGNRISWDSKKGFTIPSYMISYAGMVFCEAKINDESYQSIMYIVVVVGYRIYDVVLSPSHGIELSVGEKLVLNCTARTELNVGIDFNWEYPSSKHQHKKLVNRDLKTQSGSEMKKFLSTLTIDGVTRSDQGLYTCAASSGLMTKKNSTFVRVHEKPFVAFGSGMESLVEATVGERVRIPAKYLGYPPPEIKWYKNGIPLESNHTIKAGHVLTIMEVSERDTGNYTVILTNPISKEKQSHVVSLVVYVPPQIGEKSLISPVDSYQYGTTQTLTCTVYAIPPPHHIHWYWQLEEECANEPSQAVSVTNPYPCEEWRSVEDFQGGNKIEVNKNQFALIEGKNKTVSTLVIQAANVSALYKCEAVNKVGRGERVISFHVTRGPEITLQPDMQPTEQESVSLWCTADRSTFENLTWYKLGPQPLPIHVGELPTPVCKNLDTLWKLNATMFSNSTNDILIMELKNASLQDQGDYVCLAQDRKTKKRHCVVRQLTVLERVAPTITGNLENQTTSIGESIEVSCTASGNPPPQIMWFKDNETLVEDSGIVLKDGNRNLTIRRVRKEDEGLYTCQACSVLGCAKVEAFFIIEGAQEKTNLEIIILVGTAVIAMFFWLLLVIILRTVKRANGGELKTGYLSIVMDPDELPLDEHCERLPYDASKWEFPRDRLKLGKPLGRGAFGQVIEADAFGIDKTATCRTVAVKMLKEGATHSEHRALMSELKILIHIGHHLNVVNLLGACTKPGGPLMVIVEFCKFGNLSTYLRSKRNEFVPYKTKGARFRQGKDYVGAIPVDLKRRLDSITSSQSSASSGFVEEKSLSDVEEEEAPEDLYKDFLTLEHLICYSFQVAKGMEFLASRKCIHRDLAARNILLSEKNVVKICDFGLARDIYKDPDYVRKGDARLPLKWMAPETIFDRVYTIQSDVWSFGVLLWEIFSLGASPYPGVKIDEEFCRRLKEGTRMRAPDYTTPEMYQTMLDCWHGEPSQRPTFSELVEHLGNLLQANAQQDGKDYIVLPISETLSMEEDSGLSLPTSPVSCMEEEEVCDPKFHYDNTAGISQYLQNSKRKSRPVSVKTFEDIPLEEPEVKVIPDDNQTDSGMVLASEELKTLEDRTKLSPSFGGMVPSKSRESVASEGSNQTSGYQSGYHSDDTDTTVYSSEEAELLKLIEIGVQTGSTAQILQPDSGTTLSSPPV

On to `COc1cc2nccc(Oc3ccc(NC(=O)c4cc5c(n(-c6ccccc6)c4=O)CCCNC5=O)nc3)c2cc1OC` [Example 66, N-{5-[(6,7-dimethoxy-4-quinolinyl)oxy]-2-pyridinyl}-2,5-dioxo-1-phenyl-2,5,6,7,8,9-hexahydro-1H-pyrido[3,2-c]azepine-3-carboxamide], for which the “KDR [IC50]/Ax1 [IC50]” value in assay [1] is “about 1401 times”. The GI50 in assay [2] stood at 5.7 nM.
For `COc1cc2nccc(Oc3ccc(NC(=O)c4cc5ccncc5n(-c5ccccc5)c4=O)nc3)c2cc1OC` [Example 28, N-{5-[(6,7-dimethoxy-4-quinolinyl)oxy]-2-pyridinyl}-2-oxo-1-phenyl-1,2-dihydro-1,7-naphthyridine-3-carboxamide], in that order: “about 294 times” and 0.99 nM.
For `COc1cc2nccc(Oc3ccc(NC(=O)c4c5c(cn(-c6ccccc6)c4=O)C(=O)CCC5)nc3)c2cc1OC` [Example 42, N-{5-[(6,7-dimethoxy-4-quinolinyl)oxy]-2-pyridinyl}-3,8-dioxo-2-phenyl-2,3,5,6,7,8-hexahydro-4-isoquinolinecarboxamide], in that order: “about 2857 times” and 4.2 nM.
The matching figures for `COc1cc2nccc(Oc3ccc(NC(=O)c4cc(C(C)=O)cn(-c5ccccc5)c4=O)nc3)c2cc1OC` [Example 21, 5-acetyl-N-{5-[(6,7-dimethoxy-4-quinolinyl)oxy]-2-pyridinyl}-2-oxo-1-phenyl-1,2-dihydro-3-pyridinecarboxamide]: “about 149 times” and 0.96 nM.
